# Measured values reported in article PMC8262977, “A Dual-Specificity Inhibitor Targets Polyphosphate Kinase 1 and 2 Enzymes To Attenuate Virulence of Pseudomonas aeruginosa” (mBio, 2021).
# Columns and labels:
# P. aeruginosa PPK2A = molecular target: T1, P. aeruginosa PPK2A (Pseudomonas aeruginosa, UniProt Q9I6Z1); test: PPK2A ADP phosphorylation by polyP (ATP synthesis), toluidine blue detection; format: biochemical; conditions: ATP synthesis from ADP and polyP; 275 nM enzyme; read-out: IC50 PPK2A
# T1 construct: residues P9 to P289; MBP (N, cleaved yes); His tag (N, cleaved yes); made in house; host or cells: E. coli BL21(DE3)
# T1 sequence (Q9I6Z1 68-348): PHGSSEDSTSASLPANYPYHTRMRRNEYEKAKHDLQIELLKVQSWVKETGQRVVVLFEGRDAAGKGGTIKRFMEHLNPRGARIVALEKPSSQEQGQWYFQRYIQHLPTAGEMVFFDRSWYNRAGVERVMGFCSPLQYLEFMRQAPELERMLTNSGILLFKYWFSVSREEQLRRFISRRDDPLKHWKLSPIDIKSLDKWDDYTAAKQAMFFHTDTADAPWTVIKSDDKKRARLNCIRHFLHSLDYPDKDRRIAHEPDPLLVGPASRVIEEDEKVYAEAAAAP
# Description: (§1) All IC50 and kinetic assay mixtures contained equimolar amounts (275 nM) of PPK to ensure valid comparison between different enzymes. PolyP synthesis activity (for PPK1 and PPK2B) was assayed using the reaction buffer and conditions described above. ATP concentration was varied as indicated for kinetic experiments. Curves were fit using GraphPad Prism V9.
# (§2) Nucleotide phosphorylation activity of PPK2 enzymes was assayed in buffer containing 50 mM Tris-HCl, pH 7.5, 10 mM (NH4)2SO4, 10 mM MgCl2, 5 mM polyP45 (Sigma; in terms of individual Pi monomers), and nucleotide (ADP or AMP) at 5 mM for IC50 reactions or as indicated for kinetic experiments. Enzyme was added to a final concentration of 275 nM in 100-μl reaction volumes. One-hundred-microliter reaction mixtures were incubated at 37°C for 30 min, and then 5-μl aliquots were withdrawn and added to 1,000 μl of 6-mg/liter toluidine blue dissolved in 40 mM acetic acid to quench the reaction and quantify the polyP that remained. The A630/530 nm ratio was then recorded, and the values obtained were corrected by subtracting the corresponding blanks (all ingredients except enzyme). The amount of polyP consumed was calculated by subtracting the amount present after reaction from that present in the initial reaction mix, as calculated via a standard curve. Each monomer of Pi consumed from polyP equates to one nucleoside phosphorylated. Curves were fit using GraphPad Prism V9.
# [1] = design: method as in PMID 29084601, PMID 24703913, PMID 30024944; conditions: rats, 5 to 10 mg/kg of body weight daily for up to 8 weeks; cited from earlier work
# P. aeruginosa PA14 [2] = test: Biofilm assay, crystal violet staining; format: cell-based, Pseudomonas aeruginosa
# Description: P. aeruginosa biofilms were quantified as described previously ([54]). Briefly, M63 medium supplemented with 1 mM MgSO4 and 0.4% arginine as the sole carbon source was colony inoculated with PA14. Biofilms were allowed to form in 96-well tissue culture plates (U-bottom; Sarstedt) at 37°C for 16 h. Wells were washed twice with sterile water. Biofilm rings were stained with 0.1% crystal violet, washed twice with water, and then solubilized in 30% acetic acid to record absorbance at 570 nm.
# human protein kinases = test: Counterscreen against human protein kinases, [33P]ATP filter-binding assay; format: biochemical; conditions: 10 μM gallein, array of divergent human kinases
# Description: Toxicity is always a major concern with kinase inhibitors, even though the absence of PPK homologues in mammals makes these enzymes particularly attractive therapeutic targets ([1], [11]). Cytotoxicity of the inhibitors was therefore assessed in cultured human embryonic kidney (HEK) […] cells via standard trypan blue viability assays ([36]). While the initial hit RT1 reduced cell viability by ∼60%, gallein was noncytotoxic at concentrations up to 100 μM (Fig. 6A). Gallein was also counterscreened against an array of divergent human kinases available at the International Centre for Kinase Profiling (University of Dundee), as described previously ([37]).
# FIG 6 Gallein avoids off-target toxicity. (A) HEK cell cytotoxicity assay. Viability determined via trypan blue staining following 48 h of incubation with compounds. (B) Counterscreen for inhibition of human protein kinases by 10 μM gallein via radioactive ([^33P]ATP) filter-binding assay performed by the University of Dundee MRC PPU ([26]). (A) ns, P > 0.05; *, P < 0.05 (one-way ANOVA, Tukey’s multiple-comparison test, n = 3).
# P. aeruginosa = test: microbe, parasite or virus in culture; format: cell-based, Pseudomonas aeruginosa; conditions: 100 μM gallein, LK medium
# P. aeruginosa PA14 [3] = test: Pyocyanin quantification (absorbance at 520 nm); format: cell-based, Pseudomonas aeruginosa
# Description: Fifty-milliliter P. aeruginosa cultures in 2.5% (wt/vol) LB (Miller; Bioshop) were grown to stationary phase in 125-ml Erlenmeyer flasks with 180-rpm shaking at 37°C for 18 h. Cultures were centrifuged at 18,000 rpm for 30 min to clarify the supernatant, which was then filter sterilized. Pyoverdine was quantified spectrophotometrically at 403 nm as described previously ([55]). Pyocyanin was extracted via chloroform and treated with HCl to yield a red product that was quantified at 520 nm ([55]). To account for any colorimetric interference by inhibitors, cell-free blank readings were subtracted from each sample.
# P. aeruginosa PA14 [4] = test: Bacterial polyP accumulation assay after phosphate starvation; format: cell-based, Pseudomonas aeruginosa
# Description: P. aeruginosa polyP levels following nutrient deprivation in morpholinepropanesulfonic acid (MOPS) minimal medium were assessed as described previously ([8]), with slight variations. Briefly, overnight cultures were grown in 5 ml LB in the presence of inhibitor or DMSO as indicated. Cultures were centrifuged for 10 min at 3,900 rpm to pellet cells, which were then resuspended in MOPS minimal medium containing 100 μM phosphate and the indicated quantity of inhibitor or DMSO. Cultures were incubated at 37°C for 2 h to allow polyP accumulation and then subsequently pelleted, resuspended in guanidinium thiocyanate (GITC) lysis buffer, and boiled at 95°C for 5 min. PolyP was purified via silica spin column as described previously ([8]), with the exception of using 50 nM PPK2A instead of E. coli PPK to convert polyP to ATP. An Invitrogen ATP determination kit (ThermoFisher) was used per the manufacturer’s instructions for ATP quantification. Luminescence was recorded on a SpectraMax iD3 microplate reader (Molecular Devices).
# P. aeruginosa PPK2C = molecular target: T2, P. aeruginosa PPK2C (Pseudomonas aeruginosa, UniProt Q9HYF1); test: PPK2C AMP phosphorylation by polyP (ADP synthesis), toluidine blue detection; format: biochemical; conditions: ADP synthesis from AMP and polyP; 275 nM enzyme; read-out: IC50 PPK2C
# T2 construct: MBP (N, cleaved yes); His tag (N, cleaved yes); made in house; host or cells: E. coli BL21(DE3)
# T2 sequence (Q9HYF1 whole entry): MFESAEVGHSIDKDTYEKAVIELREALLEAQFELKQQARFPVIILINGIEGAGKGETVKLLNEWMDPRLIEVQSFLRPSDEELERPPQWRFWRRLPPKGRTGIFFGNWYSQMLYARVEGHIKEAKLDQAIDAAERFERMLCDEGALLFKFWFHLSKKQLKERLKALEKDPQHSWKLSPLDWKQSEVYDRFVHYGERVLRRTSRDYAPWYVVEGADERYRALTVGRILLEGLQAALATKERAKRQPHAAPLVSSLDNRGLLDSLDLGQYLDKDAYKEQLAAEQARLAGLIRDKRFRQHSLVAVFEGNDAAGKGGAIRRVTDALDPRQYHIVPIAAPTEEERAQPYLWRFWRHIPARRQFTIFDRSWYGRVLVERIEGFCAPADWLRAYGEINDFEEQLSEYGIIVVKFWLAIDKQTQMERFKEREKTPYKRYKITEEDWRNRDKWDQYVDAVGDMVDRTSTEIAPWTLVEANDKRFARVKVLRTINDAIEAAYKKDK
# Description: as §1, §2
# [5] = WT: DMSO control vs 100 µM gallein
# [6] = Δppk1: DMSO control vs 100 µM gallein
smiles,measurement,setting,value
"O=C1OC2(c3ccccc31)c1ccc(O)c(O)c1Oc1c2ccc(O)c1O [RT4 (gallein), gallein]",IC50,P. aeruginosa PPK2A,16 ± 3 µM
same,adverse effects,[1],no adverse effects
same,"Biofilm formation, Mean Diff.",P. aeruginosa PA14 [2]; [5],0.1666
same,biofilm formation,"P. aeruginosa PA14 [2]; WT, reduction dose dependent",reduced biofilm formation
same,biofilm formation,P. aeruginosa PA14 [2]; ΔpolyP strain,no significant effect
same,"Biofilm formation, Mean Diff.","P. aeruginosa PA14 [2]; Δppk1, 2a, 2b, 2c: DMSO control vs 100 µM gallein",0.005375
same,"Biofilm formation, Mean Diff.",P. aeruginosa PA14 [2]; [6],0.08825
same,biofilm formation,P. aeruginosa PA14 [2]; Δppk1 strain,further decreased biofilm formation
same,"Biofilm formation, Mean Diff.","P. aeruginosa PA14 [2]; Δppk2a, 2b, 2c: DMSO control vs 100 µM gallein",0.08488
same,biofilm formation,P. aeruginosa PA14 [2]; Δppk2 strain,further decreased biofilm formation
same,loss of activity of human kinases,human protein kinases,≤ 25%
same,effect on the MIC of tetracycline or ciprofloxacin,P. aeruginosa,did not alter the MIC
same,pyocyanin production,"P. aeruginosa PA14 [3]; WT, Δppk1 and Δppk2 strains",reproduced the marked pyoverdine and pyocyanin defects observed in the ΔpolyP strain
same,"Pyocyanin, Mean Diff.",P. aeruginosa PA14 [3]; [5],0.2097
same,pyocyanin production,P. aeruginosa PA14 [3]; ΔpolyP strain,no significant decrease of either toxin
same,"Pyocyanin, Mean Diff.","P. aeruginosa PA14 [3]; ∆ppk1, 2a, 2b, 2c: DMSO control vs 100 µM gallein",0.07567
same,"Pyocyanin, Mean Diff.",P. aeruginosa PA14 [3]; ∆ppk1: DMSO control vs 100 µM gallein,0.08867
same,"Pyocyanin, Mean Diff.","P. aeruginosa PA14 [3]; ∆ppk2a, 2b, 2c: DMSO control vs 100 µM gallein",0.2097
same,polyP levels,"P. aeruginosa PA14 [4]; WT, phosphate starvation medium, nonbactericidal amounts",reduced wild-type (WT) polyP levels in a dose-dependent manner
same,"Bacterial polyP accumulation, Mean Diff.",P. aeruginosa PA14 [4]; [5],68.65
same,"Bacterial polyP accumulation, Mean Diff.","P. aeruginosa PA14 [4]; Δppk1, Δppk2A, Δppk2B, Δppk2C: DMSO control vs 100 µM gallein",2.148
same,"Bacterial polyP accumulation, Mean Diff.",P. aeruginosa PA14 [4]; [6],29.11
same,polyP levels,P. aeruginosa PA14 [4]; Δppk1 strain,significantly reduced polyP levels
same,polyP levels,P. aeruginosa PA14 [4]; Δppk1 Δppk2A Δppk2B Δppk2C (ΔpolyP) strain,had no effect
same,polyP levels,P. aeruginosa PA14 [4]; Δppk2A Δppk2B Δppk2C strain,reduced polyP in this strain to a similar extent as that in the WT
same,"Bacterial polyP accumulation, Mean Diff.","P. aeruginosa PA14 [4]; Δppk2A, Δppk2B, Δppk2C: DMSO control vs 100 µM gallein",74.9
same,IC50,P. aeruginosa PPK2C,165 ± 5 µM
